Results from paper PMC6563033, “Purification and Characterization of Antioxidant Peptides Derived from Protein Hydrolysate of the Marine Bivalve Mollusk Tergillarca granosa” (Marine Drugs, 2019).
Marks after values point to notes of the source that are not given here. No end group written: not given here.

How the values were obtained:
Assay type in all cases: biochemical
[1] = DPPH radical scavenging activity; details: isolated APs; 0.02% ethanolic DPPH; EC50 from linear relation of scavenging rate and concentration; mean ± SD, n = 3
Experimental: (§1) The DPPH radical, hydroxyl radical, superoxide anion radical, and ABTS cation radical scavenging activities were measured according to the previous methods. The results were expressed as a half elimination ratio (EC50) defined as the concentration by which a sample caused a 50% decrease of the initial concentration of DPPH radical, hydroxyl radical, superoxide anion radical, and ABTS cation radical, respectively, and the calculation method of EC50 was according to linear relationship of radical scavenging rates and concentrations of samples [6, 26].
Two millilitres of samples consisting of DW and different concentrations of the analytes were placed in cuvettes, and 500 μL of an ethanolic solution of DPPH (0.02%) and 1.0 mL of ethanol were added. A control sample containing the DPPH solution without the sample was also prepared. In the blank, the DPPH solution was substituted with ethanol. The antioxidant activity of the sample was evaluated using the inhibition percentage of the DPPH radical with the following equation: DPPH radical scavenging activity (%) = (A0 + Ab − A)/A0 × 100% (2) where A is the absorbance rate of the sample, A0 is the control group absorbance, and Ab is the blank absorbance.

[2] = Hydroxyl radical scavenging activity (1,10-phenanthroline/FeSO4/H2O2); details: isolated APs; 37 °C, 60 min, absorbance 536 nm; mean ± SD, n = 3
Experimental: as §1
First, 1.0 mL of a 1.87 mM 1,10-phenanthroline solution and 2.0 mL of the sample were added to a screw-capped tube and mixed. Then, 1.0 mL of a FeSO4·7H2O solution (1.87 mM) was added to the mixture. The reaction was initiated by adding 1.0 mL of H2O2 (0.03%, v/v). After being incubated at 37 °C for 60 min in a water bath, the absorbance of the reaction mixture was measured at 536 nm against a reagent blank. […] The hydroxyl radical scavenging activity was calculated using the following formula: Hydroxyl radical scavenging activity (%) = [(As − An)/(Ab − An)] × 100% (3) where As, An, and Ab are the absorbance values determined at 536 nm of the sample, the negative control, and the blank after the reaction, respectively.

[3] = Superoxide anion radical scavenging activity (NBT/NADH/PMS); details: isolated APs; 25 °C, 5 min, absorbance 560 nm; mean ± SD, n = 3
Experimental: as §1
The superoxide anions were generated in 1 mL of nitrotetrazolium blue chloride (2.52 mM), 1 mL of nicotinamide adenine dinucleotide hydride (NADH) ([…]) and 1 mL of different sample concentrations. The reaction was initiated by adding 1 ml of phenazine methosulphate solution (120 μM) to the reaction mixture. The absorbance was measured at 560 nm against the corresponding blank after 5 min incubation at 25 °C. The superoxide anion radical scavenging capacity was calculated using the following equation: Superoxide anion radical scavenging activity (%) = [(Acontrol − Asample)/Acontrol] × 100% (4) where Acontrol is the absorbance without sample and Asample is the absorbance with sample.

[4] = ABTS cation radical scavenging activity; details: isolated APs; 5 mM PBS pH 7.4, 10 min, absorbance 734 nm; mean ± SD, n = 3
Experimental: as §1
The ABTS radical cation was generated by mixing ABTS stock solution (7 mM) with potassium persulphate (2.45 mM). The mixture was left in the dark at room temperature for 16 h. The ABTS radical solution was diluted in 5 mM PBS pH 7.4, to an absorbance of 0.70 ± 0.02 at 734 nm. One milliliter of diluted ABTS radical solution was mixed with one milliliter of different concentrations of samples. 10 min later, the absorbance was measured at 734 nm against the corresponding blank. The ABTS scavenging activity of samples was calculated using the following equation: ABTS scavenging activity (%) = [(Acontrol − Asample)/Acontrol] × 100% (5) where Acontrol is the absorbance without sample and Asample is the absorbance with sample.

- Half Elimination Ratio (EC50) DPPH Radical [1]: 1.82 ± 0.16 ^c mg/mL
- Half Elimination Ratio (EC50) Hydroxyl Radical [2]: 1.54 ± 0.11 ^b mg/mL
- Half Elimination Ratio (EC50) Superoxide Anion Radical [3]: 2.49 ± 0.17 ^b mg/mL
- Half Elimination Ratio (EC50) ABTS Cation Radical [4]: 2.56 ± 0.23 ^b mg/mL
Substance: WIDPDG [TGP-2, antioxidant peptide from blood cockle (T. granosa) protein hydrolysate]
